Source: the Kinase Knowledgebase extract (Sharma et al. 2016)

The molecules below were run against CDK2 (UniProt P24941) (assay: Enzyme Assay). Conditions: not given.

IC50 | Compound
0.087 µM | CC(=O)c1nn(-c2ccc(C)cc2)c2c1C(C)(C)Cc1[nH]ncc1-2
0.2 µM | C=CCONC(=O)c1nn(-c2ccc(S(=O)(=O)NCCC)cc2)c2c1ccc1[nH]ncc12

The molecules below were run against CDK2 (human) (UniProt P24941) (assay: Cell-Based Assay). Conditions: a2780.

IC50 | Compound
> 20 µM | NC(=O)c1nn(-c2ccc(-c3ncc[nH]3)cc2)c2c1CCc1[nH]ncc1-2
> 20 µM | NC(=O)c1nn(-c2ccc(OC(F)(F)F)cc2)c2c1CCc1[nH]ncc1-2
2.9 µM | CCCCNS(=O)(=O)c1ccc(-n2nc(C(=O)NC)c3ccc4[nH]ncc4c32)cc1
> 20 µM | CN1CCN(S(=O)(=O)c2ccc(-n3nc(C(N)=O)c4ccc5[nH]ncc5c43)cc2)CC1
> 20 µM | NC(=O)c1nn(-c2ccc(C(F)(F)F)cc2)c2c1CCc1[nH]ncc1-2
1.65 µM | CC(=O)c1nn(-c2ccc(C)cc2)c2c1C(C)(C)Cc1[nH]ncc1-2
> 20 µM | CNS(=O)(=O)c1ccc(-n2nc(C(N)=O)c3ccc4[nH]ncc4c32)cc1
> 20 µM | CC(=O)c1nn(-c2ccc(C)cc2)c2c1CCc1[nH]ncc1-2
> 20 µM | N#Cc1ccc(-n2nc(C(N)=O)c3c2-c2cn[nH]c2CC3)cc1
> 20 µM | COc1ccc(-n2nc(C(=O)O)c3ccc4[nH]ncc4c32)cc1
> 20 µM | CS(=O)(=O)c1ccc(-n2nc(C(N)=O)c3c2-c2cn[nH]c2CC3)cc1
8.7 µM | C=CCONC(=O)c1nn(-c2ccc(S(=O)(=O)NCCC)cc2)c2c1ccc1[nH]ncc12
10.2 µM | CCCCNS(=O)(=O)c1ccc(-n2nc(C(=O)NC)c3c2-c2cn[nH]c2CC3)cc1
> 20 µM | CNS(=O)(=O)c1ccc(-n2nc(C(N)=O)c3c2-c2cn[nH]c2CC3)cc1
> 20 µM | NC(=O)c1nn(-c2ccc(-c3ncc[nH]3)cc2)c2c1ccc1[nH]ncc12
> 20 µM | NC(=O)c1nn(-c2ccc(Cl)cc2)c2c1CCc1[nH]ncc1-2

Compound | IC50
NC(=O)c1nn(Cc2ccccc2)c2c1ccc1[nH]ncc12 | 2.98 µM
